Test system: 695427-040-R-J1-PDC complex spheroid viability
Assay: Anticancer human tumor 695427-040-R-J1-PDC patient-derived colon adenocarcinoma cell line growth inhibition [POLQ]
Details: for IC50: curve of first compound; for viability, T/C: stronger effect = lower value
Procedure, shortened: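 Complex spheroid viability model combining PDC tumour cells with endothelial (HUVEC) and MSC stromal cells. Novobiocin, ART-558 or RP6685 were tested singly and in combination with standard and investigational anticancer drugs. Each was titrated in half-log steps from near clinical Cmax, or from 10 microM where Cmax was unknown.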

[1] = second compound 0.0316 µM, first compound 0.0316 µM
[2] = second compound 0.0316 µM, first compound 0.1 µM
[3] = second compound 0.0316 µM, first compound 0.316 µM
[4] = second compound 0.0316 µM, first compound 1 µM
[5] = second compound 0.0316 µM, first compound 3.16 µM
[6] = second compound 0.0316 µM, first compound 10 µM
[7] = second compound 0.1 µM, first compound 0.0316 µM
[8] = second compound 0.1 µM, first compound 0.1 µM
[9] = second compound 0.1 µM, first compound 0.316 µM
[10] = second compound 0.1 µM, first compound 1 µM
[11] = second compound 0.1 µM, first compound 3.16 µM
[12] = second compound 0.1 µM, first compound 10 µM
[13] = second compound 0.316 µM, first compound 0.0316 µM
[14] = second compound 0.316 µM, first compound 0.1 µM
[15] = second compound 0.316 µM, first compound 0.316 µM
[16] = second compound 0.316 µM, first compound 1 µM
[17] = second compound 0.316 µM, first compound 3.16 µM
[18] = second compound 0.316 µM, first compound 10 µM
[19] = second compound 1 µM, first compound 0.0316 µM
[20] = second compound 1 µM, first compound 0.1 µM
[21] = second compound 1 µM, first compound 0.316 µM
[22] = second compound 1 µM, first compound 1 µM
[23] = second compound 1 µM, first compound 3.16 µM
[24] = second compound 1 µM, first compound 10 µM
[25] = second compound 3.16 µM, first compound 0.0316 µM
[26] = second compound 3.16 µM, first compound 0.1 µM
[27] = second compound 3.16 µM, first compound 0.316 µM
[28] = second compound 3.16 µM, first compound 1 µM
[29] = second compound 3.16 µM, first compound 3.16 µM
[30] = second compound 3.16 µM, first compound 10 µM
[31] = second compound 10 µM, first compound 0.0316 µM
[32] = second compound 10 µM, first compound 0.1 µM
[33] = second compound 10 µM, first compound 0.316 µM
[34] = second compound 10 µM, first compound 1 µM
[35] = second compound 10 µM, first compound 3.16 µM
[36] = second compound 10 µM, first compound 10 µM
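Also: spheroids exposed to compounds for seven days.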
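For viability, T/C in this document: 100% = DMSO vehicle control viability.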

Structure (SMILES): C=CC(=O)N1CCN(c2nc(=O)n(-c3c(C)ccnc3C(C)C)c3nc(-c4c(O)cccc4F)c(F)cc23)C(C)C1 (stereo unspecified) + Cc1cccc(N(C)C(=O)C2C(O)CCN2c2nc(C)cc(C(F)(F)F)c2C#N)c1
- IC50 (second compound 0.0316 µM): > 10 µM
- IC50 (second compound 0.1 µM): > 10 µM
- IC50 (second compound 0.316 µM): > 10 µM
- IC50 (second compound 1 µM): > 10 µM
- IC50 (second compound 3.16 µM): > 10 µM
- IC50 (second compound 10 µM): > 10 µM
- viability, T/C [1]: 98.8%
- viability, T/C [2]: 93.9%
- viability, T/C [3]: 101%
- viability, T/C [4]: 105%
- viability, T/C [5]: 107%
- viability, T/C [6]: 110%
- viability, T/C [7]: 96.2%
- viability, T/C [8]: 92.4%
- viability, T/C [9]: 101%
- viability, T/C [10]: 108%
- viability, T/C [11]: 99.9%
- viability, T/C [12]: 104%
- viability, T/C [13]: 103%
- viability, T/C [14]: 103%
- viability, T/C [15]: 101%
- viability, T/C [16]: 104%
- viability, T/C [17]: 101%
- viability, T/C [18]: 106%
- viability, T/C [19]: 98.1%
- viability, T/C [20]: 98.5%
- viability, T/C [21]: 97.8%
- viability, T/C [22]: 99.4%
- viability, T/C [23]: 97.5%
- viability, T/C [24]: 102%
- viability, T/C [25]: 97.8%
- viability, T/C [26]: 84.5%
- viability, T/C [27]: 97.9%
- viability, T/C [28]: 93.4%
- viability, T/C [29]: 103%
- viability, T/C [30]: 107%
- viability, T/C [31]: 87.8%
- viability, T/C [32]: 91.8%
- viability, T/C [33]: 87.5%
- viability, T/C [34]: 101%
- viability, T/C [35]: 102%
- viability, T/C [36]: 105%

Structure (SMILES): CC(C)n1c(=O)n(C)c2cnc3cc(F)c(-c4ccc(OCCCN5CCCCC5)nc4)cc3c21 + Cc1cccc(N(C)C(=O)C2C(O)CCN2c2nc(C)cc(C(F)(F)F)c2C#N)c1
- IC50 (second compound 0.0316 µM): > 10 µM
- IC50 (second compound 0.1 µM): > 10 µM
- IC50 (second compound 0.316 µM): > 10 µM
- IC50 (second compound 1 µM): > 10 µM
- IC50 (second compound 3.16 µM): > 10 µM
- IC50 (second compound 10 µM): > 10 µM
- viability, T/C [1]: 97.5%
- viability, T/C [2]: 98.8%
- viability, T/C [3]: 101%
- viability, T/C [4]: 111%
- viability, T/C [5]: 98.3%
- viability, T/C [6]: 75.8%
- viability, T/C [7]: 99.3%
- viability, T/C [8]: 102%
- viability, T/C [9]: 110%
- viability, T/C [10]: 108%
- viability, T/C [11]: 96.8%
- viability, T/C [12]: 70.3%
- viability, T/C [13]: 104%
- viability, T/C [14]: 101%
- viability, T/C [15]: 106%
- viability, T/C [16]: 113%
- viability, T/C [17]: 92.7%
- viability, T/C [18]: 68.7%
- viability, T/C [19]: 101%
- viability, T/C [20]: 102%
- viability, T/C [21]: 105%
- viability, T/C [22]: 103%
- viability, T/C [23]: 102%
- viability, T/C [24]: 67.2%
- viability, T/C [25]: 98.5%
- viability, T/C [26]: 100%
- viability, T/C [27]: 102%
- viability, T/C [28]: 98.5%
- viability, T/C [29]: 98.2%
- viability, T/C [30]: 67%
- viability, T/C [31]: 93.5%
- viability, T/C [32]: 99.9%
- viability, T/C [33]: 99.6%
- viability, T/C [34]: 101%
- viability, T/C [35]: 100%
- viability, T/C [36]: 55.7%

Structure (SMILES): CC1COCCN1c1cc(-c2ccnn2C)c2ccnc(-c3ccn[nH]3)c2n1 (stereo unspecified) + Cc1cccc(N(C)C(=O)C2C(O)CCN2c2nc(C)cc(C(F)(F)F)c2C#N)c1
- IC50 (second compound 0.0316 µM): 1.91 µM
- IC50 (second compound 0.1 µM): 2.18 µM
- IC50 (second compound 0.316 µM): 1.36 µM
- IC50 (second compound 1 µM): 1.89 µM
- IC50 (second compound 3.16 µM): 1.98 µM
- IC50 (second compound 10 µM): 1.79 µM
- viability, T/C [1]: 97.1%
- viability, T/C [2]: 83%
- viability, T/C [3]: 61.4%
- viability, T/C [4]: 53.4%
- viability, T/C [5]: 49%
- viability, T/C [6]: 46.5%
- viability, T/C [7]: 95.2%
- viability, T/C [8]: 83.1%
- viability, T/C [9]: 66.1%
- viability, T/C [10]: 51.1%
- viability, T/C [11]: 49.1%
- viability, T/C [12]: 48.4%
- viability, T/C [13]: 104%
- viability, T/C [14]: 83.5%
- viability, T/C [15]: 65.3%
- viability, T/C [16]: 46.4%
- viability, T/C [17]: 49.5%
- viability, T/C [18]: 46.9%
- viability, T/C [19]: 89.3%
- viability, T/C [20]: 77.8%
- viability, T/C [21]: 59.9%
- viability, T/C [22]: 46.1%
- viability, T/C [23]: 52.8%
- viability, T/C [24]: 49.5%
- viability, T/C [25]: 97.9%
- viability, T/C [26]: 78.7%
- viability, T/C [27]: 66.1%
- viability, T/C [28]: 48.5%
- viability, T/C [29]: 49%
- viability, T/C [30]: 48%
- viability, T/C [31]: 86.5%
- viability, T/C [32]: 74.2%
- viability, T/C [33]: 61.2%
- viability, T/C [34]: 49.5%
- viability, T/C [35]: 50.4%
- viability, T/C [36]: 47.1%

Reference: PubChem BioAssay AID1963840 (Molecular Pharmacology Branch, DTP, NCI, 2024)
